The test system of assay [1] is SAM in HCT116 MTAP-deleted cells. As to the kind of experiment: Cellular assay of target engagement (SAM), LC-MS/MS. The format is cell-based, human. The note with it: 72 h, read-out: Cell 72 h SAM Inhibition (MTAP −/−). The method, then: Measurement of MAT2A activity in cells was made by direct quantitation of the abundance of the product of its enzymatic activity, SAM. Cancer cells were treated with candidate MAT2A inhibitors for a suitable incubation period, and the cells were then lysed using a reagent which quenched any further enzyme activity. Soluble metabolites including SAM were collected and SAM itself was directly measured from the lysate using quantitative LC-MS/MS.
A typical assay was performed using an HCT116 human colon carcinoma cell line which was genetically engineered to delete the MTAP gene (commercially available from Horizon Discovery). […] Cells were plated in 96-well dishes at appropriate cell density. Following 24 hours, cells were then treated with the candidate MAT2A inhibitor. […] Compound was then transferred to a working stock plate in cell culture media by adding 5 μL of compound in DMSO to 495 μL of cell culture media. This working stock was then added to cells via a further 5-fold dilution, by adding 25 μL of working stock to 100 μL of cells in culture media. Following compound addition, cells were incubated at 37° C./5% CO2 for 72 hrs.
To quantitate SAM levels following compound treatment, cells were gently washed once in ammonium carbonate buffer (75 mM at pH 7.4), placed on dry ice, and lysed with metabolite extraction buffer (80% cold methanol and 20% water (v/v) with acetic acid at 1M final concentration with 200 ng/mL deuterated d3-SAM as internal control). Following centrifugation at 4° C. at 3,200 rpm for 30 minutes, the supernatant was collected and stored at −80° C. until analysis by Liquid Chromatography with tandem Mass Spectrometry (LC-MS/MS). LC-MS/MS analysis was performed using an API6500 Mass Spectrometer (Sciex, Framingham, Mass., USA) operating in positive ion spray mode and equipped with a Waters UPLC Acquity (Waters, Milford, Mass., USA) BEH Amide column.

The test system of the next assay is HCT116 MTAP+/+. As to the kind of experiment: Inhibition of cellular proliferation (Cell Titer Glo), HCT116 MTAP+/+. The conditions noted are these: Homo sapiens, HCT-116, 96 h, Table 5a, 4 days, read-out: 4 Day Relative Growth Inhibition (MTAP +/+). The format is cell-based. The protocol: (§1) Test compound impact on cancer cell growth was assessed by treating cancer cells with compound for 4 days and then measuring proliferation using an ATP-based cell proliferation readout (Cell Titer Glo, Promega Corporation).
(§2) In a typical assay an isogenic pair of HCT116 human colon carcinoma cell lines which vary only in MTAP deletion status (HCT116 MTAP+/+ and HCT116 MTAP−/−) were plated in 96-well dishes at appropriate cell density. Following 24 hours, cells were then treated with the candidate MAT2A inhibitor. […] Compound was then transferred to a working stock plate in cell culture media by adding 5 μL of compound in DMSO to 495 μL of cell culture media. This working stock was then added to cells via a further 5-fold dilution, by adding 25 μL of working stock to 100 μL of cells in culture media. Following compound addition, cells were incubated at 37° C./5% CO2 for 4 days.
(§3) The plate was then covered with aluminum foil and shaken for 15 minutes to ensure complete mixing and full cell lysis. […] This luminescence measure was converted to a proliferation index by subtracting from each data point the ATP luminescence signal measured from a bank (no cells) well and dividing by the ATP luminescence signal measured in 0.2% DMSO control well adjusted for signal in blank well.

For the next assay, the system named is HCT116 MTAP-/-. As to the kind of experiment: Inhibition of cellular proliferation (Cell Titer Glo), HCT116 MTAP-/-. The format is cell-based, human. The conditions noted are these: 4 days, read-out: 4 Day Relative Growth Inhibition (MTAP −/−). The method, then: as §1, §2, §3
(Cellular ATP, detected with luciferase, serves as a proxy for viable cell number.)

For a further assay, the target named is T1, MAT2A homodimer (Homo sapiens, UniProt P31153).
T1 construct: inferred from the Ni sepharose purification and imidazole elution; made in house; host or cells: SF9 insect cells, recombinant baculovirus (Bac to Bac, pFASTBAC1)
As to the kind of experiment: MAT2A biochemical assay (liberated phosphate, PiColorLock Gold). The note with it: Table 5a; MAT2A biochemical assay; read-out: Enzyme Inhibition. The method in brief:
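Readout is liberated phosphate (PiColorLock Gold), stoichiometric with SAM production, quantified against a potassium phosphate standard curve. Enzyme: recombinant MAT2A homodimer from Sf9, equilibrated 60 min at 25 °C with compound before 60 min reaction with substrate mix containing 500 μM ATP and 400 μM L-methionine.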

Setting [2] is: Homo sapiens, HCT-116, Table 5a.
Setting [3] is: Homo sapiens, HCT-116, 96 h, Table 5a.
[4] abbreviates: Table 6, select pairs of compounds.

Where two headings read alike, the source gives them in different places.

T1 sequence (P31153 whole entry): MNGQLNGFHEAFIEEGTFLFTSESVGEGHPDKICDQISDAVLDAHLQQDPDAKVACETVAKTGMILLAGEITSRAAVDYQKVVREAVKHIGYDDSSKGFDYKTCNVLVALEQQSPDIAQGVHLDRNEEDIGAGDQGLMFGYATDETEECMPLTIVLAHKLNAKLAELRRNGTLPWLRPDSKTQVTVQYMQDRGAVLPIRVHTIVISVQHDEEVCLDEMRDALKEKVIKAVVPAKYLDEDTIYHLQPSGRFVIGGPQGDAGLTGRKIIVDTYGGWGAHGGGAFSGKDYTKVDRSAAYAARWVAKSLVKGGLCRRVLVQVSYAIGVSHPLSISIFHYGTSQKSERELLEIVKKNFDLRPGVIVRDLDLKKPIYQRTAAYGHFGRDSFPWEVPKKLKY

For `[2H]C([2H])([2H])Oc1ccc(N2C(=O)N(c3ccc4nn(CC(F)F)cc4c3)Cc3ccc(OCC(F)F)nc32)cc1` [Example 119, 7-(2,2-difluoroethoxy)-3-(2-(2,2-difluoroethyl)-2H-indazol-5-yl)-1-(4-methoxy-d3-phenyl)-3,4-dihydropyrido[2,3-d]pyrimidin-2(1H)-one], the IC50 is under 100 nM in assay [1] (setting [2]), over 1000 nM with HCT116 MTAP+/+, 100 to 1000 nM with HCT116 MTAP-/- (setting [3]) and under 100 nM on MAT2A homodimer.
As to `[2H]C([2H])([2H])Oc1ccc(N2C(=O)N(c3ccc4nn(CC(F)(F)F)cc4c3)Cc3ccc(OCC(F)F)nc32)cc1` [Example 120, 7-(2,2-difluoroethoxy)-1-(4-methoxy-d3-phenyl)-3-(2-(2,2,2-trifluoroethyl)-2H-indazol-5-yl)-3,4-dihydropyrido[2,3-d]pyrimidin-2(1H)-one], the IC50 is 100 to 1000 nM in assay [1] (setting [2]), over 1000 nM with HCT116 MTAP+/+, 100 to 1000 nM with HCT116 MTAP-/- (setting [3]) and under 100 nM on MAT2A homodimer.
For `CCOc1ccc2c(n1)N(c1ccc(OC)cc1)C(=O)N(c1ccc3c(c1)N(C)CCO3)C2` [Example 122, 7-ethoxy-1-(4-methoxyphenyl)-3-(4-methyl-3,4-dihydro-2H-benzo[b][1,4]oxazin-6-yl)-3,4-dihydropyrido[2,3-d]pyrimidin-2(1H)-one], the IC50 in assay [1] (setting [2]) is 100 to 1000 nM; in the assay on HCT116 MTAP+/+, over 1000 nM; in the assay on HCT116 MTAP-/- (setting [3]), 100 to 1000 nM; at MAT2A homodimer it was under 100 nM.
For `[2H]C([2H])([2H])Oc1ccc(N2C(=O)N(c3ccc4nn(CCC)cc4c3)Cc3ccc(OCC(F)F)nc32)cc1` [Example 123, 7-(2,2-difluoroethoxy)-1-(4-methoxy-d3-phenyl)-3-(2-propyl-2H-indazol-5-yl)-3,4-dihydropyrido[2,3-d]pyrimidin-2(1H)-one], the IC50 in assay [1] (setting [2]) is under 100 nM; with HCT116 MTAP+/+, over 1000 nM; with HCT116 MTAP-/- (setting [3]) it was 100 to 1000 nM; on MAT2A homodimer, under 100 nM.
Take `[2H]C([2H])([2H])Oc1ccc(N2C(=O)N(c3ccc4nn(CC)cc4c3)Cc3ccc(OCC(F)F)nc32)cc1` [Example 124, 7-(2,2-difluoroethoxy)-3-(2-ethyl-2H-indazol-5-yl)-1-(4-methoxy-d3-phenyl)-3,4-dihydropyrido[2,3-d]pyrimidin-2(1H)-one]: the IC50 in assay [1] (setting [2]) is under 100 nM; with HCT116 MTAP+/+, over 1000 nM; in the assay with HCT116 MTAP-/- (setting [3]), under 100 nM; at MAT2A homodimer, under 100 nM.
For the compound `[2H]C([2H])([2H])Oc1ccc(N2C(=O)N(c3ccc4nn(CCOC)cc4c3)Cc3ccc(OCC(F)F)nc32)cc1` [Example 125, 7-(2,2-difluoroethoxy)-3-(2-(2-methoxyethyl)-2H-indazol-5-yl)-1-(4-methoxy-d3-phenyl)-3,4-dihydropyrido[2,3-d]pyrimidin-2(1H)-one], the IC50 in assay [1] (setting [2]) was under 100 nM; in the assay on HCT116 MTAP+/+, over 1000 nM; in the assay on HCT116 MTAP-/- (setting [3]), under 100 nM; on MAT2A homodimer, under 100 nM.
As for `[2H]C([2H])([2H])Oc1ccc(N2C(=O)N(c3ccc4nn(CCC(F)(F)F)cc4c3)Cc3ccc(OCC(F)F)nc32)cc1` [Example 128, 7-(2,2-difluoroethoxy)-1-(4-methoxy-d3-phenyl)-3-(2-(3,3,3-trifluoropropyl)-2H-indazol-5-yl)-3,4-dihydropyrido[2,3-d]pyrimidin-2(1H)-one], the IC50 was 100 to 1000 nM in assay [1] (setting [2]), over 1000 nM in the assay with HCT116 MTAP+/+, 100 to 1000 nM in the assay with HCT116 MTAP-/- (setting [3]) and under 100 nM at MAT2A homodimer.
Consider `[2H]C([2H])([2H])Oc1ccc(N2C(=O)N(c3ccc4nn(CCF)cc4c3)Cc3ccc(OCC(F)F)nc32)cc1` [Example 129, 7-(2,2-difluoroethoxy)-3-(2-(2-fluoroethyl)-2H-indazol-5-yl)-1-(4-methoxy-d3-phenyl)-3,4-dihydropyrido[2,3-d]pyrimidin7-2(1H)-one], for which the IC50 in assay [1] (setting [2]) was 100 to 1000 nM; in the assay with HCT116 MTAP+/+ it was over 1000 nM; in the assay on HCT116 MTAP-/- (setting [3]), 100 to 1000 nM; on MAT2A homodimer, under 100 nM.
Regarding `CCOc1ccc2c(n1)N(c1ccc(OC(F)F)cc1)C(=O)N(c1ccc(OC)cc1)C2` [Example 130, 1-(4-(difluoromethoxy)phenyl)-7-ethoxy-3-(4-methoxyphenyl)-3,4-dihydropyrido[2,3-d]pyrimidin-2(1H)-one], the IC50 in assay [1] (setting [2]) was 100 to 1000 nM; in the assay with HCT116 MTAP+/+, over 1000 nM; in the assay on HCT116 MTAP-/- (setting [3]), 100 to 1000 nM; on MAT2A homodimer, under 100 nM.
In the case of `CCOc1ccc2c(n1)N(c1ccc(OC(F)F)cc1)C(=O)N(c1ccc3nn(C)cc3c1)C2` [Example 131, 1-(4-(difluoromethoxy)phenyl)-7-ethoxy-3-(2-methyl-2H-indazol-5-yl)-3,4-dihydropyrido[2,3-d]pyrimidin-2(1H)-one], the IC50 in assay [1] (setting [2]) is under 100 nM; in the assay with HCT116 MTAP+/+ it was 100 to 1000 nM; in the assay on HCT116 MTAP-/- (setting [3]), 100 to 1000 nM; on MAT2A homodimer, under 100 nM.
As to `CCSc1ccc2c(n1)N(c1ccc(OC)cc1)C(=O)N(c1ccc3nn(C)cc3c1)C2` [Example 132, 7-(ethylthio)-1-(4-methoxyphenyl)-3-(2-methyl-2H-indazol-5-yl)-3,4-dihydropyrido[2,3-d]pyrimidin-2(1H)-one], the IC50 is 100 to 1000 nM in assay [1] (setting [2]); 100 to 1000 nM in assay [1] (setting [4]); over 1000 nM with HCT116 MTAP+/+; 100 to 1000 nM in the assay with HCT116 MTAP-/- (setting [3]); 100 to 1000 nM in the assay on HCT116 MTAP-/- (setting [4]); under 100 nM at MAT2A homodimer.
As to `Cn1cc2cc(N3Cc4ccc(OCC(F)F)nc4N(c4ccc(Br)cc4)C3=O)ccc2n1` [Example 133, 1-(4-bromophenyl)-7-(2,2-difluoroethoxy)-3-(2-methyl-2H-indazol-5-yl)-3,4-dihydropyrido[2,3-d]pyrimidin-2(1H)-one], the IC50 was under 100 nM in assay [1] (setting [2]), over 1000 nM in the assay on HCT116 MTAP+/+, under 100 nM with HCT116 MTAP-/- (setting [3]) and under 100 nM at MAT2A homodimer.
`[2H]C([2H])([2H])Oc1ccc(N2C(=O)N(c3ccc4ncn(C)c4c3)Cc3ccc(OCC(F)F)nc32)cc1` [Example 135, 7-(2,2-difluoroethoxy)-1-(4-(methoxy-d3)phenyl)-3-(1-methyl-1H-benzo[d]imidazol-6-yl)-3,4-dihydropyrido[2,3-d]pyrimidin-2(1H)-one]: the IC50 in assay [1] (setting [2]) was under 100 nM; in the assay with HCT116 MTAP+/+, over 1000 nM; with HCT116 MTAP-/- (setting [3]), under 100 nM; on MAT2A homodimer, under 100 nM.
Consider `[2H]C([2H])([2H])Oc1ccc(N2C(=O)N(c3ccc4nn(C)cc4c3)Cc3ccc(OCC(F)F)nc32)cc1` [Example 136, 7-(2,2-difluoroethoxy)-1-(4-(methoxy-d3)phenyl)-3-(2-methyl-2H-indazol-5-yl)-3,4-dihydropyrido[2,3-d]pyrimidin-2(1H)-one], for which the IC50 in assay [1] (setting [2]) was under 100 nM; with HCT116 MTAP+/+, 100 to 1000 nM; with HCT116 MTAP-/- (setting [3]) it was under 100 nM; on MAT2A homodimer, under 100 nM.
For the compound `[2H]C([2H])([2H])Oc1ccc(N2C(=O)N(c3ccc4nn(C)cc4c3)Cc3ccc(OCC)nc32)cc1` [Example 137, 7-ethoxy-1-(4-(methoxy-d3)phenyl)-3-(2-methyl-2H-indazol-5-yl)-3,4-dihydropyrido[2,3-d]pyrimidin-2(1H)-one], the IC50 was under 100 nM in assay [1] (setting [2]), over 1000 nM with HCT116 MTAP+/+, under 100 nM in the assay on HCT116 MTAP-/- (setting [3]) and under 100 nM at MAT2A homodimer.

The values are drawn from US20220098203A1 (priority 2018, published 2022).
